Experimental data: patent US20230085307A1, “PYRIDAZINONE COMPOUND AND HERBICIDE” (NISSAN CHEMICAL CORPORATION, priority 2019, published 2023)

Test system: oval-leafed pondweed
Experiment: Test Example 2: herbicidal activity, application during weed generation under submerged conditions (Table 17, symbol C)
Type: in vivo, oval-leafed pondweed (Monochoria vaginalis)
Settings: AAH 320 g/ha; application during weed generation, submerged conditions
Outline: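 3-wk visual-criteria score after one water-surface dose. Emulsion formulation, water-diluted to set rate; applied at 1–2 leaf stage; alluvial soil, 4 cm standing water; seeds co-sown; greenhouse 25–30° C.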

| SMILES | herbicidal effect rating, C: oval-leafed pondweed |
| --- | --- |
| CCCC(=O)Oc1c(C)nn(C)c(=O)c1-c1c(-c2ccc(OC(C)C)cc2)sc2cc(F)ccc12 [3-020] | 2 (Herbicidal rate of 20% or more and less than 40%) |
| CCOc1ccccc1-c1sc2cc(C)ccc2c1-c1c(O)c(C)nn(C)c1=O [3-053] | 3 (Herbicidal rate of 40% or more and less than 70%) |

Test system: false cleavers
Experiment: Test Example 5: herbicidal effect by foliage application, plastic box (Table 20, symbol Q)
Type: in vivo, false cleavers (Galium spurium)
Settings: foliage application, 320 g/ha, three weeks after application
Outline: (§1)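 Post-emergence foliar test in sterilized diluvial soil. Compound applied as water-diluted emulsion at a predetermined rate to 14-day-old plants; evaluation at three weeks.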

| SMILES | Q: false cleavers, herbicidal effect grade |
| --- | --- |
| CCCC(=O)Oc1c(C)nn(C)c(=O)c1-c1c(-c2ccc(OC(C)C)cc2)sc2cc(F)ccc12 [3-020] | 4 (Herbicidal rate of 70% or more and less than 90%) |
| CCOc1ccccc1-c1sc2cc(C)ccc2c1-c1c(O)c(C)nn(C)c1=O [3-053] | 5 (Herbicidal rate of 90% or more (almost completely withered)) |

Test system: chickweed
Experiment: Test Example 4: herbicidal effect by soil treatment (Table 19, symbol P)
Type: in vivo, common chickweed (Stellaria media)
Settings: amount of applied herbicide 320 g/ha
Outline: (§2)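 Scoring uses the grading scale of an earlier test, three weeks post-application. Treatment consists of spraying a diluted emulsion formulation across the surface of sterilized diluvial soil in which seeds are buried near 1.5 cm deep; boxes are kept in a greenhouse between 25° C. and 30° C.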

| SMILES | herbicidal effect, P: chickweed | P: chickweed, herbicidal effect grade |
| --- | --- | --- |
| CCCC(=O)Oc1c(C)nn(C)c(=O)c1-c1c(-c2ccc(OC(C)C)cc2)sc2cc(F)ccc12 [3-020] | 0 (Herbicidal rate of 5% or less (almost no effect)) | – |
| CCOc1ccccc1-c1sc2cc(C)ccc2c1-c1c(O)c(C)nn(C)c1=O [3-053] | – | 4 (Herbicidal rate of 70% or more and less than 90%) |

Test system: southern crabgrass
Experiment: Test Example 4: herbicidal effect by soil treatment (Table 19, symbol F)
Type: in vivo, southern crabgrass (Digitaria ciliaris)
Settings: amount of applied herbicide 320 g/ha
Outline: as §2

| SMILES | herbicidal effect, F: southern crabgrass | F: southern crabgrass, herbicidal effect grade |
| --- | --- | --- |
| CCCC(=O)Oc1c(C)nn(C)c(=O)c1-c1c(-c2ccc(OC(C)C)cc2)sc2cc(F)ccc12 [3-020] | 0 (Herbicidal rate of 5% or less (almost no effect)) | – |
| CCOc1ccccc1-c1sc2cc(C)ccc2c1-c1c(O)c(C)nn(C)c1=O [3-053] | – | 5 (Herbicidal rate of 90% or more (almost completely withered)) |

Test system: green foxtail
Experiment: Test Example 4: herbicidal effect by soil treatment (Table 19, symbol G)
Type: in vivo, green foxtail (Setaria viridis)
Settings: amount of applied herbicide 320 g/ha
Outline: as §2

| SMILES | herbicidal effect, G: green foxtail | G: green foxtail, herbicidal effect grade |
| --- | --- | --- |
| CCCC(=O)Oc1c(C)nn(C)c(=O)c1-c1c(-c2ccc(OC(C)C)cc2)sc2cc(F)ccc12 [3-020] | 0 (Herbicidal rate of 5% or less (almost no effect)) | – |
| CCOc1ccccc1-c1sc2cc(C)ccc2c1-c1c(O)c(C)nn(C)c1=O [3-053] | – | 5 (Herbicidal rate of 90% or more (almost completely withered)) |

Test system: blackgrass
Experiment: Test Example 5: herbicidal effect by foliage application, plastic box (Table 20, symbol J)
Type: in vivo, blackgrass (Alopecurus myosuroides)
Settings: foliage application, 320 g/ha, three weeks after application
Outline: as §1

| SMILES | J: blackgrass, herbicidal effect grade |
| --- | --- |
| CCCC(=O)Oc1c(C)nn(C)c(=O)c1-c1c(-c2ccc(OC(C)C)cc2)sc2cc(F)ccc12 [3-020] | 2 (Herbicidal rate of 20% or more and less than 40%) |
| CCOc1ccccc1-c1sc2cc(C)ccc2c1-c1c(O)c(C)nn(C)c1=O [3-053] | 5 (Herbicidal rate of 90% or more (almost completely withered)) |

Test system: redroot pigweed
Experiment: Test Example 5: herbicidal effect by foliage application, plastic box (Table 20, symbol N)
Type: in vivo, redroot pigweed (Amaranthus retroflexus)
Settings: foliage application, 320 g/ha, three weeks after application
Outline: as §1

| SMILES | N: redroot pigweed, herbicidal effect grade |
| --- | --- |
| CCCC(=O)Oc1c(C)nn(C)c(=O)c1-c1c(-c2ccc(OC(C)C)cc2)sc2cc(F)ccc12 [3-020] | 4 (Herbicidal rate of 70% or more and less than 90%) |
| CCOc1ccccc1-c1sc2cc(C)ccc2c1-c1c(O)c(C)nn(C)c1=O [3-053] | 5 (Herbicidal rate of 90% or more (almost completely withered)) |

Test system: southern crabgrass
Experiment: Test Example 5: herbicidal effect by foliage application, plastic box (Table 20, symbol F)
Type: in vivo, southern crabgrass (Digitaria ciliaris)
Settings: foliage application, 320 g/ha, three weeks after application
Outline: as §1

| SMILES | F: southern crabgrass, herbicidal effect grade |
| --- | --- |
| CCCC(=O)Oc1c(C)nn(C)c(=O)c1-c1c(-c2ccc(OC(C)C)cc2)sc2cc(F)ccc12 [3-020] | 0 (Herbicidal rate of 5% or less (almost no effect)) |
| CCOc1ccccc1-c1sc2cc(C)ccc2c1-c1c(O)c(C)nn(C)c1=O [3-053] | 5 (Herbicidal rate of 90% or more (almost completely withered)) |

Test system: persian speedwell
Experiment: Test Example 5: herbicidal effect by foliage application, plastic box (Table 20, symbol R)
Type: in vivo, Persian speedwell (Veronica persica)
Settings: foliage application, 320 g/ha, three weeks after application
Outline: as §1

| SMILES | R: persian speedwell, herbicidal effect grade |
| --- | --- |
| CCCC(=O)Oc1c(C)nn(C)c(=O)c1-c1c(-c2ccc(OC(C)C)cc2)sc2cc(F)ccc12 [3-020] | 5 (Herbicidal rate of 90% or more (almost completely withered)) |
| CCOc1ccccc1-c1sc2cc(C)ccc2c1-c1c(O)c(C)nn(C)c1=O [3-053] | 5 (Herbicidal rate of 90% or more (almost completely withered)) |

Test system: barnyard grass
Experiment: Test Example 4: herbicidal effect by soil treatment (Table 19, symbol H)
Type: in vivo, barnyard grass (Echinochloa crus-galli)
Settings: amount of applied herbicide 320 g/ha
Outline: as §2

| SMILES | herbicidal effect, H: barnyard grass | H: barnyard grass, herbicidal effect grade |
| --- | --- | --- |
| CCCC(=O)Oc1c(C)nn(C)c(=O)c1-c1c(-c2ccc(OC(C)C)cc2)sc2cc(F)ccc12 [3-020] | 0 (Herbicidal rate of 5% or less (almost no effect)) | – |
| CCOc1ccccc1-c1sc2cc(C)ccc2c1-c1c(O)c(C)nn(C)c1=O [3-053] | – | 0 (Herbicidal rate of 5% or less (almost no effect)) |

Test system: blackgrass
Experiment: Test Example 4: herbicidal effect by soil treatment (Table 19, symbol J)
Type: in vivo, blackgrass (Alopecurus myosuroides)
Settings: amount of applied herbicide 320 g/ha
Outline: as §2

| SMILES | herbicidal effect, J: blackgrass | J: blackgrass, herbicidal effect grade |
| --- | --- | --- |
| CCCC(=O)Oc1c(C)nn(C)c(=O)c1-c1c(-c2ccc(OC(C)C)cc2)sc2cc(F)ccc12 [3-020] | 0 (Herbicidal rate of 5% or less (almost no effect)) | – |
| CCOc1ccccc1-c1sc2cc(C)ccc2c1-c1c(O)c(C)nn(C)c1=O [3-053] | – | 3 (Herbicidal rate of 40% or more and less than 70%) |

Test system: redroot pigweed
Experiment: Test Example 4: herbicidal effect by soil treatment (Table 19, symbol N)
Type: in vivo, redroot pigweed (Amaranthus retroflexus)
Settings: amount of applied herbicide 320 g/ha
Outline: as §2

| SMILES | herbicidal effect, N: redroot pigweed | N: redroot pigweed, herbicidal effect grade |
| --- | --- | --- |
| CCCC(=O)Oc1c(C)nn(C)c(=O)c1-c1c(-c2ccc(OC(C)C)cc2)sc2cc(F)ccc12 [3-020] | 4 (Herbicidal rate of 70% or more and less than 90%) | – |
| CCOc1ccccc1-c1sc2cc(C)ccc2c1-c1c(O)c(C)nn(C)c1=O [3-053] | – | 3 (Herbicidal rate of 40% or more and less than 70%) |

Test system: windgrass
Experiment: Test Example 4: herbicidal effect by soil treatment (Table 19, symbol L)
Type: in vivo, windgrass (Apera spica-venti)
Settings: amount of applied herbicide 320 g/ha
Outline: as §2

| SMILES | herbicidal effect, L: windgrass | L: windgrass, herbicidal effect grade |
| --- | --- | --- |
| CCCC(=O)Oc1c(C)nn(C)c(=O)c1-c1c(-c2ccc(OC(C)C)cc2)sc2cc(F)ccc12 [3-020] | 0 (Herbicidal rate of 5% or less (almost no effect)) | – |
| CCOc1ccccc1-c1sc2cc(C)ccc2c1-c1c(O)c(C)nn(C)c1=O [3-053] | – | 5 (Herbicidal rate of 90% or more (almost completely withered)) |

Test system: barnyard grass
Experiment: Test Example 3: herbicidal effect by foliage application, Wagner pot (Table 18, symbol H)
Type: in vivo, barnyard grass (Echinochloa crus-galli)
Settings: 320 g/ha
Outline: (§3)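 Plants were sown in alluvial soil held under 0.1–0.5 cm standing water and grown 14 days in a greenhouse at 25–30 °C. An emulsifiable formulation, water-diluted to the set dose, was then sprayed onto the foliage, and effects were scored three weeks later using previously defined criteria.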

| SMILES | herbicidal effect on barnyard grass (H) |
| --- | --- |
| CCOc1ccccc1-c1sc2cc(C)ccc2c1-c1c(O)c(C)nn(C)c1=O [3-053] | 5 (Herbicidal rate of 90% or more (almost completely withered)) |

Same assay, conditions: amount of applied herbicide 320 g/ha

| SMILES | herbicidal effect on H: barnyard grass |
| --- | --- |
| CCCC(=O)Oc1c(C)nn(C)c(=O)c1-c1c(-c2ccc(OC(C)C)cc2)sc2cc(F)ccc12 [3-020] | 4 (Herbicidal rate of 70% or more and less than 90%) |

Test system: green foxtail
Experiment: Test Example 5: herbicidal effect by foliage application, plastic box (Table 20, symbol G)
Type: in vivo, green foxtail (Setaria viridis)
Settings: foliage application, 320 g/ha, three weeks after application
Outline: as §1

| SMILES | G: green foxtail, herbicidal effect grade |
| --- | --- |
| CCCC(=O)Oc1c(C)nn(C)c(=O)c1-c1c(-c2ccc(OC(C)C)cc2)sc2cc(F)ccc12 [3-020] | 0 (Herbicidal rate of 5% or less (almost no effect)) |
| CCOc1ccccc1-c1sc2cc(C)ccc2c1-c1c(O)c(C)nn(C)c1=O [3-053] | 5 (Herbicidal rate of 90% or more (almost completely withered)) |

Test system: late watergrass
Experiment: Test Example 1: herbicidal activity, application before weed generation under submerged conditions (Table 16, symbol A)
Type: in vivo, late watergrass (Echinochloa oryzicola)
Settings: amount of applied herbicide 320 g/ha
Outline: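 Alluvial soil was flooded to 4 cm depth, weed seeds were sown mixed and 2.5-leaf rice seedlings were transplanted. On sowing day, the compound's emulsion, diluted in water to a set dose, was applied to the water surface. Plants grew at 25–30 °C and were scored 0–5 after three weeks.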

| SMILES | Herbicidal effect, A: late watergrass |
| --- | --- |
| CCCC(=O)Oc1c(C)nn(C)c(=O)c1-c1c(-c2ccc(OC(C)C)cc2)sc2cc(F)ccc12 [3-020] | 3 (Herbicidal rate of 40% or more and less than 70%) |
| CCOc1ccccc1-c1sc2cc(C)ccc2c1-c1c(O)c(C)nn(C)c1=O [3-053] | 5 (Herbicidal rate of 90% or more (almost completely withered)) |

Test system: Chinese sprangletop
Experiment: Test Example 3: herbicidal effect by foliage application, Wagner pot (Table 18, symbol D)
Type: in vivo, chinese sprangletop (Leptochloa chinensis)
Settings: 320 g/ha
Outline: as §3

| SMILES | herbicidal effect on Chinese sprangletop (D) |
| --- | --- |
| CCOc1ccccc1-c1sc2cc(C)ccc2c1-c1c(O)c(C)nn(C)c1=O [3-053] | 4 (Herbicidal rate of 70% or more and less than 90%) |

Same assay, conditions: amount of applied herbicide 320 g/ha

| SMILES | herbicidal effect on D: Chinese sprangletop |
| --- | --- |
| CCCC(=O)Oc1c(C)nn(C)c(=O)c1-c1c(-c2ccc(OC(C)C)cc2)sc2cc(F)ccc12 [3-020] | 3 (Herbicidal rate of 40% or more and less than 70%) |
